Tests used:
[1] = technetium complex; cited from earlier work
[2] = technetium complex, monkey; cited from earlier work
[3] = Electrophoresis of 99mTc complexes (charge); format: physicochemical; settings: 0.05M NaH2PO4, pH 4.5, 300 volts
Text: After labelling, and if required, the resultant ^99m Tc chelate complexes can be purified by passing through a C-18 Sep Pak column.

[4] = Biodistribution of 99mTc labelled complexes in rats (Tc brain bioassay, Example 64, Table I); format: in vivo, Female Sprague-Dawley rats; settings: rat, i.v. tail vein
Method: Distribution of the ^99m Tc labelled compounds was evaluated in rats. Female Sprague-Dawley rats weighing 140 to 220 g (average 170 g) were anaesthetised with sodium pentobarbital and were injected in a tail vein with 0.05 to 10mCi of the ^99m Tc labelled complex in a volume of 0.2 to 0.5 ml. At least two rats were injected for each time point.
The animals were sacrificed at 5 and 30 minutes post injection and selected organs were removed; the tails were discarded to avoid interference from the injection site. The radioactivity in each organ was measured at a standard geometry with a […] sodium iodide scintillation counter adjusted for the 140 KeV emission of ^99m Tc. The organs were also weighed to one hundredth of a gram and the activity was calculated as a percent of administered dose per gram. The important determinations are the amount of activity in the brain and the brain:blood ratio.

## CC(C)(S)CNCCNCC(C)(C)S [BAT]
[1]
  brain uptake / crossing of blood-brain barrier: can cross the blood-brain barrier (BBB)
  retention of brain activity: fails to show retention

## CCOC(=O)[C@H](CS)NCCN[C@@H](CS)C(=O)OCC [ECD]
[2]
  brain retention: retention
  brain uptake: good

## COC(=O)C[SH]1C(C)(C)C(=O)[N]2CC[N]3c4ccccc4[S][Tc]231=[O] (stereo not drawn) [Example T727, ^99m Tc complex of N[2-(((2-methyl-2-(methoxycarbonylmethylenethio))propionyl)amino)ethyl]-2-(4-methoxybenzylthio)aniline]
[3]; 35 min
  Electrophoresis (charge): neutral
[4]; 5 min post injection
  Brain % dose: 0.09 % dose
  Brain:blood: 0.09
  Heart % dose: 0.45 % dose
  Heart:blood: 1.26
[4]; 30 min post injection
  Brain % dose: 0.07 % dose
  Brain:blood: 0.06
  Heart % dose: 0.18 % dose
  Heart:blood: 0.42

## C[SH]1c2ccccc2[N]2CC(=O)[N]3CC(C)(C)[S][Tc]321=[O] (stereo not drawn) [Example T729, ^99m Tc complex of N[2-oxo-2(N^1 ((2-methyl-2-mercapto)propyl)amino)ethyl]-2-methylthioaniline]
[3]; 30 min
  Electrophoresis (charge): neutral
[4]; 5 min post injection
  Brain % dose: 0.87 % dose
  Brain:blood: 0.19
  Heart % dose: 0.70 % dose
  Heart:blood: 0.34
[4]; 30 min post injection
  Brain % dose: 0.21 % dose
  Brain:blood: 0.08
  Heart % dose: 0.28 % dose
  Heart:blood: 0.36

## CC1(C)C(=O)[N]2CC[N]3c4ccccc4[S][Tc]23(=[O])[SH]1CCCl (stereo not drawn) [Example T730, ^99m Tc complex of N[2-(((2-methyl-2-(2-chloroethylthio))propionyl)amino)ethyl]-2-(4-methoxybenzylthio)aniline]
[3]; 30 min
  Electrophoresis (charge): neutral
[4]; 5 min post injection
  Brain % dose: 2.45 % dose
  Brain:blood: 6.1
  Heart % dose: 0.71 % dose
  Heart:blood: 3.97
[4]; 30 min post injection
  Brain % dose: 0.73 % dose
  Brain:blood: 1.8
  Heart % dose: 0.29 % dose
  Heart:blood: 1.53

## CC1(C)C(=O)[N]2CC[N]3c4ccccc4[S][Tc]23(=[O])[SH]1CCC#N (stereo not drawn) [Example T731, ^99m Tc complex of N[2-(((2-methyl-2-(2-cyanoethylthio))propionyl)amino)ethyl]-2-(4-methoxybenzylthio)aniline]
[3]; 30 min
  Electrophoresis (charge): neutral
[4]; 5 min post injection
  Brain % dose: 1.49 % dose
  Brain:blood: 0.42
  Heart % dose: 1.01 % dose
  Heart:blood: 0.68
[4]; 30 min post injection
  Brain % dose: 0.60 % dose
  Brain:blood: 0.21
  Heart % dose: 0.58 % dose
  Heart:blood: 0.42

## CC(C)(S)CNCc1ccccc1NCC(C)(C)S [U-BAT]
[1]
  brain uptake / crossing of blood-brain barrier: exhibit brain uptake
  retention of brain activity: no retention

Reference: US5690904A, “Diagnostic radiopharmaceutical compounds (That)” (priority 1995, dated 1997)
